US8399674B2, “Quinolines” (Hoffman-La Roche Inc., priority 2007, dated 2013)

The compounds below were run against T1, recombinant human 5-HT5A receptor (Homo sapiens, UniProt P47898) (assay: [3H]LSD radioligand binding assay, membranes of HEK-EBNA cells transiently expressing the receptor). Conditions: [3H]LSD approx. 1 nM, 120 min room temperature, Ki from IC50 by Cheng-Prussoff equation, read-out: Ki (affinity towards the human 5-HT5A receptor).
T1 construct: expressed in transfected cells; host or cells: HEK-EBNA (Human Embryonic Kidney-EBNA) cells, transient transfection; membranes
T1 sequence (P47898 whole entry): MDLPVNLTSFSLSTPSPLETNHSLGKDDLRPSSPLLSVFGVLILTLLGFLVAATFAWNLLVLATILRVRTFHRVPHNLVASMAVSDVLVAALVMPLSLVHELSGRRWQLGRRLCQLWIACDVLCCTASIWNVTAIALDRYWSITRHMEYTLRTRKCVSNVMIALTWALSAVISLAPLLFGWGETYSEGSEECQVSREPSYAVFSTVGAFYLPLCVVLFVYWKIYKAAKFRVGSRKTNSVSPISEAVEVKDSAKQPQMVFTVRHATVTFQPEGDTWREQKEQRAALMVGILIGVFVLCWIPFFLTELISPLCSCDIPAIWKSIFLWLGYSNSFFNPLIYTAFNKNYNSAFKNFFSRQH
Description: A [^3H] LSD radioligand binding assay was used to determine the affinity of the compounds for the recombinant human 5-HT5A receptor, in membranes from transiently (cDNA) expressed 5-HT5A receptors in Human Embryonic Kidney-EBNA (HEK-EBNA) cells.
Assay buffer consisted of Tris (50 mM) buffer containing 1 mM EGTA, 10 mM MgCl2 (pH 7.4) and 10 μM pargyline. The binding assay was carried out in 96-well-plates in the presence of [^3H]LSD (approximately 1 nM), approximately 2 μg/well of membrane protein, and 0.5 mg of Ysi-poly-1-lysine SPA beads in a final volume of 200 μl of buffer. Non-specific binding was defined using methiothepin 2 μM. Compounds were tested at 10 concentrations. All assays were conducted in duplicate and repeated at least two times. Assay plates were incubated for 120 min at room temperature before centrifugation. Bound ligand was determined using a Packard Topcount scintillation counter. IC50 values were calculated using a non-linear curve fitting program and Ki values calculated using the Cheng-Prussoff equation.

SMILES | Ki [nM]
c1ccc(OCCNc2ccc3cc(NCc4cccnc4)ccc3n2)cc1 [Example 1, N2-(2-Phenoxy-ethyl)-N6-pyridin-3-ylmethyl-quinoline-2,6-diamine] | 22
COc1ccccc1CNc1ccc2cc(CCc3ccccc3)ccc2n1 [Example 4, (2-Methoxy-benzyl)-(6-phenethyl-quinolin-2-yl)-amine] | 104
COc1ccccc1CNc1ccc2cc(NCc3cccnc3)ccc2n1 [Example 6, N2-(2-Methoxy-benzyl)-N6-pyridin-3-ylmethyl-quinoline-2,6-diamine] | 27
c1ccc(OCCNc2ccc3cc(NCc4ccncc4)ccc3n2)cc1 [Example 7, N2-(2-Phenoxy-ethyl)-N6-pyridin-4-ylmethyl-quinoline-2,6-diamine] | 101
COc1ccccc1CNc1ccc2cc(NCc3ccccc3)ccc2n1 [Example 8, N6-Benzyl-N2-(2-methoxy-benzyl)-quinoline-2,6-diamine] | 22
COc1ccccc1CNc1ccc2nc(NCCOc3ccccc3)ccc2c1 [Example 9, N6-(2-Methoxy-benzyl)-N2-(2-phenoxy-ethyl)-quinoline-2,6-diamine] | 26
COc1cccc(CNc2ccc3nc(NCCOc4ccccc4)ccc3c2)c1 [Example 10, N6-(3-Methoxy-benzyl)-N2-(2-phenoxy-ethyl)-quinoline-2,6-diamine] | 42
COc1ccccc1CNc1cc(-c2ccccc2)c2cc(NCc3cccnc3)ccc2n1 [Example 13, N2-(2-Methoxy-benzyl)-4-phenyl-N6-pyridin-3-ylmethyl-quinoline-2,6-diamine] | 11
COc1ccccc1CNc1ccc2cc(/C=C/c3cccnc3)ccc2n1 [Example 14, (2-Methoxy-benzyl)-[6-((E)-2-pyridin-3-yl-vinyl)-quinolin-2-yl]-amine] | 60
COc1ccccc1CNc1ccc2nc(NCc3ccccc3OC)ccc2c1 [Example 15, N2,N6-Bis-(2-methoxy-benzyl)-quinoline-2,6-diamine] | 17
COc1cccc(CNc2ccc3nc(NCc4ccccc4OC)ccc3c2)c1 [Example 16, N6-(3-Methoxy-benzyl)-N2-(2-methoxy-benzyl)-quinoline-2,6-diamine] | 17
COc1ccccc1CNc1ccc2cc(NCc3ccccc3OC(F)(F)F)ccc2n1 [Example 17, N2-(2-Methoxy-benzyl)-N6-(2-trifluoromethoxy-benzyl)-quinoline-2,6-diamine] | 25
COc1ccccc1CNc1ccc2cc(CCc3cccnc3)ccc2n1 [Example 18, (2-Methoxy-benzyl)-[6-(2-pyridin-3-yl-ethyl)-quinolin-2-yl]-amine] | 87
COc1cccc(CNc2ccc3nc(NCc4ccccc4OC)cc(-c4ccccc4)c3c2)c1 [Example 19, N6-(3-Methoxy-benzyl)-N2-(2-methoxy-benzyl)-4-phenyl-quinoline-2,6-diamine] | 22
COc1ccccc1CNc1ccc2nc(NCc3ccccc3OC)cc(-c3ccccc3)c2c1 [Example 20, N2,N6-Bis-(2-methoxy-benzyl)-4-phenyl-quinoline-2,6-diamine] | 30
COc1ccccc1CNc1ccc2cc(NCCCn3ccnc3)ccc2n1 [Example 23, N6-(3-Imidazol-1-yl-propyl)-N2-(2-methoxy-benzyl)-quinoline-2,6-diamine] | 129
Cc1ccc(CNc2ccc3cc(NCc4cccnc4)ccc3n2)o1 [Example 25, N2-(5-Methyl-furan-2-ylmethyl)-N6-pyridin-3-ylmethyl-quinoline-2,6-diamine] | 22

SMILES | Ki [nM]
COc1ccccc1CNc1ccc2nc(NCc3ccc(C)o3)ccc2c1 [Example 27, N6-(2-Methoxy-benzyl)-N2-(5-methyl-furan-2-ylmethyl)-quinoline-2,6-diamine] | 30
COc1cccc(CNc2ccc3nc(NCc4ccc(C)o4)ccc3c2)c1 [Example 28, N6-(3-Methoxy-benzyl)-N2-(5-methyl-furan-2-ylmethyl)-quinoline-2,6-diamine] | 44
Cc1ccc(CNc2ccc3cc(NCc4ccccc4)ccc3n2)o1 [Example 29, N6-Benzyl-N2-(5-methyl-furan-2-ylmethyl)-quinoline-2,6-diamine] | 32
COc1cc(F)ccc1CNc1cc(-c2ccccc2)c2cc(NCc3cccnc3)ccc2n1 [Example 31, N-2-(4-Fluoro-2-methoxy-benzyl)-4-phenyl-N-6-pyridin-3-ylmethyl-quinoline-2,6-diamine] | 17
COc1ccccc1CNc1cc(-c2ccccc2C)c2cc(NCc3cccnc3)ccc2n1 [Example 32, N2-(2-Methoxy-benzyl)-N6-pyridin-3-ylmethyl-4-o-tolyl-quinoline-2,6-diamine] | 12
COc1cccc(-c2cc(NCc3ccccc3OC)nc3ccc(NCc4cccnc4)cc23)c1 [Example 33, N-2-(2-Methoxy-benzyl)-4-(3-methoxy-phenyl)-N-6-pyridin-3-ylmethyl-quinoline-2,6-diamine] | 50
COc1ccccc1CNc1cc(-c2cc(F)ccc2F)c2cc(NCc3cccnc3)ccc2n1 [Example 35, 4-(2,5-Difluoro-phenyl)-N2-(2-methoxy-benzyl)-N6-pyridin-3-ylmethyl-quinoline-2,6-diamine] | 22
COc1cc(F)ccc1CNc1cc(-c2ccccc2)c2cc(NCc3ccccc3)ccc2n1 [Example 36, N-6-Benzyl-N-2-(4-fluoro-2-methoxy-benzyl)-4-phenyl-quinoline-2,6-diamine] | 42
COc1cc(F)ccc1CNc1cc(-c2ccccc2)c2cc(NCc3ccncc3)ccc2n1 [Example 37, N-2-(4-Fluoro-2-methoxy-benzyl)-4-phenyl-N-6-&-pyridin-4-ylmethyl-quinoline-2,6-diamine] | 40
COc1cc(F)ccc1CNc1cc(-c2ccccc2C)c2cc(NCc3ccccc3)ccc2n1 [Example 38, N-6-2-Benzyl-N-2-(4-fluoro-2-methoxy-benzyl)-4-o-tolyl-quinoline-2,6-diamine] | 41
COCCNc1cc(NCc2ccc(F)cc2OC)nc2ccc(NCc3ccccc3)cc12 [Example 42, N6-Benzyl-N2-(4-fluoro-2-methoxy-benzyl)-N4-(2-methoxy-ethyl)-quinoline-2,4,6-triamine] | 169
COc1ccccc1CNc1ccc2cc(COc3ccccc3)ccc2n1 [Example 43, (2-Methoxy-benzyl)-(6-phenoxymethyl-quinolin-2-yl)-amine] | 73
COc1cc(F)ccc1CNc1cc(N)c2cc(NCc3ccccc3)ccc2n1 [Example 44, N6-Benzyl-N2-(4-fluoro-2-methoxy-benzyl)-quinoline-2,4,6-triamine] | 40
COc1ccccc1CNc1cc(N)c2cc(NCc3ccccc3)ccc2n1 [Example 47, N6-Benzyl-N2-(2-methoxy-benzyl)-quinoline-2,4,6-triamine] | 30
Cc1ccc(CNc2ccc3cc(CNc4cccnc4)ccc3n2)o1 [Example 49, (5-Methyl-furan-2-ylmethyl)-[6-(pyridin-3-ylaminomethyl)-quinolin-2-yl]-amine] | 128
COc1ccccc1CNc1cc(N)c2cc(NCc3cccnc3)ccc2n1 [Example 51, N2-(2-Methoxy-benzyl)-N6-pyridin-3-ylmethyl-quinoline-2,4,6-triamine] | 15
Cc1ccc(CNc2cc(N)c3cc(NCc4cccnc4)ccc3n2)o1 [Example 54, N2-(5-Methyl-furan-2-ylmethyl)-N6-pyridin-3-ylmethyl-quinoline-2,4,6-triamine] | 22
